# Data published in patent US6512166B1, “Combinations of fungal cell wall degrading enzyme and fungal cell membrane affecting compound” (priority 1991, dated 2003).
# What was measured:
# B. cinerea = conditions: against B. cinerea, Watanabe et al; cited from earlier work
# [1] = Solubility, guidance for forming solutions
# Description: Compositions for use in the systems herein are readily formulated by admixing the fungal cell wall degrading enzymes and the antifungal fungal cell membrane affecting compounds with non-toxic carriers appropriate for the particular use for a composition, e.g., agriculturally acceptable carriers for agricultural uses and pharmaceutically acceptable carriers for medicinal uses. They may be formulated as liquids (solutions or suspensions) or as solids. Since the fungal cell wall degrading enzymes need free water for activity, water must be present at the time of function. […] Water is a preferred vehicle where components are soluble in it. […] Organic solvents can also be used and may be required in some cases if a solution is desired. Guidance for forming solutions follows. […] Suspension can also be employed.
# B. cinerea strain 12 = test: Inhibition of spore germination, ELISA plate assay (Examples III-XVI, XVIII); type: cell-based, Botrytis cinerea; conditions: for ED50: alone or with enzyme at its ED10 concentration; for inhibition of spore germination: FIG. 7
# Experimental: (§1) The concentration where fungal cell wall degrading enzyme individually provides a specified percentage fungal inhibition or where antifungal fungal cell membrane affecting compound individually provides a specific percentage fungal inhibition can be determined as follows: Assays are performed under sterile conditions. Equal volumes of spore suspensions, 3× potato dextrose broth, and the test solution or suspension in 5 mM Tris-HCl (pH 6.0) or 5 mM potassium phosphate buffer (pH 6.7) are mixed. The control is the same as the test solution except for the control the antifungal agent is omitted. The assay mixtures (total volume 45 or 30 μl) are incubated on flat-bottomed ELISA plates, each containing 96 wells, with 2,000 to 3,000 spores per well, at 25° C. After 22 to 30 hours, the plates are placed under an inverted microscope. The percentage of conidia germinating is determined as the percentage of the first 100 spores randomly found in a well. In addition, the lengths of 20 germ tubes are measured and averaged. All experiments are performed twice, with three replicates for each treatment. The inhibition values obtained in the two experiments are combined and averaged, and standard deviations are calculated from the 6 data points. The values obtained for the control are taken as 0% inhibition and all other values are divided by the values obtained for the control and multiplied by 100% to obtain percent inhibition. Determination of concentration corresponding to a particular percent inhibition is carried out by subjecting dose-response curves to regression analysis by using a binomial regression of the third order, with R^2 ranging between 0.95 and 0.99.
# (§2) Assays were carried out by the procedure described in the summary of the invention section. Dose response curves were obtained by probit analysis of data collected from two separate experiments with each experiment involving three treatment replicates.
# Each of 8 antifungal fungal cell membrane affecting compounds were used in combination with each of 8 or 6 fungal cell wall degrading enzymes to provide 50% inhibition (ED50) of B. cinerea strain 12 spore germination. Each fungal cell wall degrading enzyme was used at a concentration giving 10% inhibition of spore germination when used alone in combination with an amount of antifungal fungal cell membrane affecting compound so the combination gave 50% inhibition of spore germination.
# (§3) Dose response curves were determined for each antifungal fungal cell membrane affecting compound and for each fungal cell wall degrading enzyme singly. Then each fungal cell wall degrading enzyme at a concentration giving 10% inhibition when used alone was combined with increasing amounts of antifungal fungal cell membrane affecting compound. Then the concentration of antifungal fungal cell membrane affecting compound causing the ED50 for each combination was calculated by probit analysis of data collected from two experiments with three treatment replicates for each experiment. Assays for inhibition of spore germination were carried out as described in the summary of invention section above.
# The relative level of synergism (RS below) for each combination was calculated by applying Limpel's formula: Ee=X+Y−(XY/100) as described in Richer, D. L, Pestic. Sci. 19, 309-315, 1987. In Limpel's formula, X and Y are the percentages of inhibition relative to each compound used alone and Ee is the expected effect for an additional (non-synergistic) effect. If the combination of the two agents produces an observed effect (Eo) greater than Ee, synergism exists, and as the difference between Eo and Ee increases, the level of synergism is greater. […]
# [2] = test system: Fusarium oxysporum strain FOP1; test: Inhibition of spore germination, ELISA plate assay (Examples V-XIV, XVII); type: cell-based; conditions: for inhibition of spore germination: FIG. 8
# Experimental: as §1, §2, §3
# The relative level of synergism (RS below) for each combination was calculated by applying Limpel's formula: Ee=X+Y−(XY/100) as described in Richer, D. L, Pestic. Sci. 19, 309-315, 1987. In Limpel's formula, X and Y are the percentages of inhibition relative to each compound used alone and Ee is the expected effect for an additional (non-synergistic) effect. If the combination of the two agents produces an observed effect (Eo) greater than Ee, synergism exists, and as the difference between Eo and Ee increases, the level of synergism is greater. In this experiment, the X value (percentage inhibition by fungal cell wall degrading enzyme when used alone was chosen to be 10 (10% inhibition of spore germination when used alone) and the observed effect, Eo, was 50 (i.e., 50% inhibition of spore germination). The Y values were obtained from the determined concentrations of antifungal cell membrane affecting compound causing the ED50 for a combination and the dose response curves for the antifungal cell membrane affecting compound used alone—i.e., the Y value was the percent inhibition for the antifungal fungal cell membrane affecting compound when used alone for the concentration of antifungal fungal cell membrane affecting compound that was determined to cause the ED50 for the combination. Ee values were then calculated from Limpel's formula. […]
compound,measurement,setting,value
CC(C)OP(=O)(OC(C)C)SCc1ccccc1 [kitazin P],Minimum inhibitory concentration,B. cinerea,500 µg/mL
"CN1C(=O)[C@]23CC4=CC=C[C@H](O)[C@H]4N2C(=O)[C@@]1(CO)SS3 [Gliotoxin, gliotoxin]",solubility (solvent in which the substance dissolves),[1],dissolves in methanol and ethanol
NC(=O)OC[C@H](O)[C@@H](O)[C@H](N)C(=O)N[C@H](C(=O)O)[C@H]1O[C@@H](n2cc(CO)c(=O)[nH]c2=O)[C@H](O)[C@@H]1O [polyoxin B],Minimum inhibitory concentration,B. cinerea,12.5 µg/mL
"CC(C)[C@@H]1NC(=O)[C@H](C)OC(=O)[C@@H](C(C)C)NC(=O)[C@@H](C(C)C)OC(=O)[C@H](C(C)C)NC(=O)[C@H](C)OC(=O)[C@@H](C(C)C)NC(=O)[C@@H](C(C)C)OC(=O)[C@H](C(C)C)NC(=O)[C@H](C)OC(=O)[C@@H](C(C)C)NC(=O)[C@@H](C(C)C)OC1=O [Valinomycin, valinomycin]",ED50,"B. cinerea strain 12; Table 16, concentration of valinomycin for 50% inhibition",7.3 (7.0-7.6) μg ml^−1
same,ED,"[2]; Table 24, concentration of valinomycin for 50% inhibition, alone or with enzyme at its ED10 concentration",8.5 (8.0-9.0) ng ml^−1
same,solubility (solvent in which the substance dissolves),[1],dissolve in acetone
trichorzianine A1 [Trich. A1],ED50,"B. cinerea strain 12; Table 18, concentration of trichorzianine A1 for 50% inhibition",90.5 (85-95) μg ml^−1
same,ED50,"[2]; Table 26, concentration of trichorzianine A1 for 50% inhibition, alone or with enzyme at its ED10 concentration",87 (83-91) ng ml^−1
same,solubility (solvent in which the substance dissolves),[1],readily dissolved in water
gramicidin,ED50,"B. cinerea strain 12; Table 15, concentration of gramicidin for 50% inhibition",>300 µg/mL
same,inhibition of spore germination,B. cinerea strain 12; gramicidin alone,20-25%
same,inhibition of spore germination,"B. cinerea strain 12; gramicidin with endochitinase from G. virens strain 41 (2.5, 5 μg/ml)",about 100%
same,ED50,"[2]; Table 23, concentration of gramicidin for 50% inhibition, alone or with enzyme at its ED10 concentration",>300 ng/mL
same,inhibition of spore germination,[2]; gramicidin alone,20-25%
same,inhibition of spore germination,"[2]; gramicidin with glucosidase from T. harzianum strain P1 (10, 25 μg/ml)",about 100%
same,solubility (solvent in which the substance dissolves),[1],dissolves in ethanol
trichorzianine B1 [Trich. B1],ED50,"B. cinerea strain 12; Table 19, concentration of trichorzianine B1 for 50% inhibition",95.2 (92-99) μg ml^−1
same,ED50,"[2]; Table 27, concentration of trichorzianine B1 for 50% inhibition, alone or with enzyme at its ED10 concentration",95.5 (92-99) ng ml^−1
same,solubility (solvent in which the substance dissolves),[1],readily dissolved in water
